The nature of data set [1]: Cytotoxicity against […] cells after 48 hrs by SRB assay. The format is cell-based, Cricetulus griseus. The conditions noted are these: chinese hamster, CHO-K1 cells.
The test system of another data set is MCF7. Kind of data set: Cytotoxicity against human MCF7 cells after 48 hrs by SRB assay. In kind it is functional. As to conditions: MCF7, 48 h. A general note: In SRB staining, fixed cells bind dye roughly in proportion to their protein.
A further data set has as its system SF-268. Kind of data set: Cytotoxicity against human SF268 cells after 48 hrs by SRB assay. The format is functional. As to conditions: SF-268, 48 h.
Another data set deals with HT-29. The experiment in a line: Cytotoxicity against human HT-29 cells after 48 hrs by SRB assay. The format is functional. The conditions noted are these: HT-29, 48 h.
A further data set has as its system NCI-H460. Kind of data set: Cytotoxicity against human H460 cells after 48 hrs by SRB assay. As to conditions: NCI-H460, 48 h. The format is functional.

The GI50 is the concentration at which growth is held to half of that of the control. Read a high GI50 as lower sensitivity of the cells.

In data set [1], `C=C1CCCC(C)(C)C1CCc1ccc2c(c1)C(=O)C=C(OC)C2=O` (stereo not given) [METACHROMIN W] returned a concentration for 50% growth inhibition (GI50) at 48 h of 89 µM. Also, the GI50 in the data set on MCF7 is 107 µM; in the data set on SF-268 it was 104 µM; with HT-29 it was 130 µM; in the data set on NCI-H460, 50 µM.
The corresponding values for `CN[C@@H]1C[C@H]2O[C@@](C)([C@@H]1OC)n1c3ccccc3c3c4c(c5c6ccccc6n2c5c31)C(=O)NC4` [STAUROSPORINE] are 0.13 µM, 11 µM, 0.044 µM, 3.6 µM and 3.6 µM.
Consider `CC(=O)O[C@H]1C(=O)[C@@]2(C)[C@H]([C@H](OC(=O)c3ccccc3)[C@]3(O)C[C@H](OC(=O)[C@H](O)[C@@H](NC(=O)c4ccccc4)c4ccccc4)C(C)=C1C3(C)C)[C@]1(OC(C)=O)CO[C@@H]1C[C@@H]2O` [PACLITAXEL], for which, in data set [1], it took 5.9 µM to inhibit growth by half (GI50 at 48 h). Further, the concentration for 50% growth inhibition (GI50) in the data set with MCF7 stood at 0.012 µM; with SF-268, 0.012 µM; with HT-29, 0.012 µM; with NCI-H460, 0.024 µM.
For `C=C1CCCC(C)(C)C1CC/C(C)=C/Cc1cc(O)ccc1O` (stereo not given) [METACHROMIN V], the GI50 at 48 h in data set [1] is 2.1 µM. Further, the concentration for 50% growth inhibition (GI50) in the data set with MCF7 is 3.2 µM; with SF-268, 5.1 µM; in the data set on HT-29, 10 µM; in the data set with NCI-H460, 5.1 µM.
For `C=C1CCCC(C)(C)C1CCC1(C)C=Cc2cc(O)cc(OC)c2O1` (stereo not given) [METACHROMIN U], growth in data set [1] was halved (GI50 at 48 h) at 27 µM. The 50% growth inhibitory concentration (GI50) in the data set with MCF7 is 29 µM; in the data set on SF-268 it was 32 µM; in the data set with HT-29, 30 µM; in the data set on NCI-H460, 37 µM.

The values are drawn from ChEMBL document CHEMBL1782002, “Metachromins U-W: cytotoxic merosesquiterpenoids from an Australian specimen of the sponge Thorecta reticulata” (J Nat Prod, 2011).
